Assay [1] concerns Acinetobacter baumannii. In words: Activity of Acinetobacter baumannii AC-54/97 metallo-beta-lactamase IMP-2 expressed in Escherichia coli DH5alpha.
In assay [2] the test system is Acinetobacter baumannii. Briefly: Ratio of Kcat to Km of Acinetobacter baumannii AC-54/97 metallo-beta-lactamase IMP-2 expressed in Escherichia coli DH5alpha.

As usually defined, the Km is the concentration of substrate that gives half-maximal velocity. In general, kcat refers to the number of substrate molecules converted per active site and unit of time at saturation.

Consider `CO[C@@]1(NC(=O)Cc2cccs2)C(=O)N2C(C(=O)O)=C(COC(N)=O)CS[C@@H]21`, for which, in assay [1], the Km was 7 µM and the kcat was 7 s⁻¹. For the same molecule, in assay [2], the kcat/Km worked out at 1.
On to `C[C@@H](O)[C@H]1C(=O)N2C(C(=O)O)=C(S[C@@H]3CN[C@H](C(=O)N(C)C)C3)[C@H](C)[C@H]12`, for which, in assay [1], the Michaelis constant (Km) came out at 0.3 µM and the kcat was determined as 1 s⁻¹. The kcat/Km in assay [2] was 3.3.
The matching figures for `CC1(C)S[C@@H]2[C@H](NC(=O)[C@H](N)c3ccc(O)cc3)C(=O)N2[C@H]1C(=O)O`: 110 µM, 23 s⁻¹ and 0.21.
Taken in the same sequence, the figures for `CC(C)(O/N=C(\C(=O)N[C@@H]1C(=O)N2C(C(=O)[O-])=C(C[n+]3ccccc3)CS[C@H]12)c1csc(N)n1)C(=O)O` were 111 µM, 21 s⁻¹ and 0.19.
Consider `CC1(C)S[C@@H]2[C@H](NC(=O)[C@H](C(=O)O)c3ccsc3)C(=O)N2[C@H]1C(=O)O`, for which, in assay [1], the Km is 700 µM and the kcat came out at 252 s⁻¹. For the same molecule, the kcat/Km in assay [2] is 0.36.
The matching figures for `C[C@@H](O)[C@H]1C(=O)N2C(C(=O)O)=C(SCCNC=N)C[C@H]12`: 24 µM, 22 s⁻¹ and 0.92.
